Source: doi:10.1101/2023.02.27.530254, “Large library docking for cannabinoid-1 receptor agonists with reduced side effects” (bioRxiv, 2024)
Read-outs that look alike come from different tables or passages of the source.

Legend:
CB1 = biological target: T1, CB1 (Rattus norvegicus, UniProt P20272); assay: Radioligand competition binding with [3H]-CP-55,940, rat brain membranes; conditions: for Emax: read-out: rCB1 binding Emax [SEM]; for % [3H]-CP-55,940 displacement (mean) from single point screen: screens at 10 μM (white cells), 1 μM (orange) or 300 nM (green), cell colours not visible
T1 construct: membrane preparations from rat brain (source of CB1); tissue Bioivt RAT00BRAINMZN; host or cells: rat brain
Experimental: The results were analyzed using nonlinear regression to determine the IC50 and Ki values for each ligand (Prism by GraphPad Software, Inc., San Diego, CA). The Ki values are expressed as the mean of two to three experiments each performed in triplicate.

hCB1 = hCB1 (Homo sapiens, UniProt P21554); assay: bioSens-All ebBRET effector biosensor signaling profiling, HEK293; assay type: cell-based; set-up: host or cells: HEK293 (HEK293SL clone), transient
Experimental: (§1) ebBRET-based effector membrane translocation biosensor assays were conducted at Domain Therapeutics NA Inc. (Montreal, QC, Canada) as previously described. […] HEK293 cells were maintained in Dulbecco’s Modified Eagle Medium (DMEM) (Wisent) supplemented with 1% penicillin- streptomycin (Wisent) and 10% (or 2 % for transfection) fetal bovine serum (Wisent) at 37°C with 5% CO2. All biosensor-coding plasmids and related information are the property of Domain Therapeutics NA Inc. The total amount of transfected DNA was adjusted and kept constant at 1 μg per mL of cell culture to be transfected using salmon sperm DNA (Invitrogen) as ‘carrier’ DNA, PEI (polyethylenimine 25 kDa linear, PolyScience) and DNA (3:1 ml PEI:mg DNA ratio) were first diluted separately in 150 mM NaCl then mixed and incubated for at least 20 minutes at room temperature to allow for the formation of DNA/PEI complexes. During the incubation, HEK293 cells were detached, counted, and re-suspended in maintenance medium to a 350,000 cells per mL density. At the end of the incubation period, the DNA/PEI mixture was added to the cells. Cells were finally distributed in 96-well plates (White Opaque 96-well /Microplates, Greiner) at a density of 35,000 cells per well. Forty-eight hours post-transfection, medium was aspirated and replaced with 100 μl of Hank’s Balanced Salt Solution buffer (HBSS) (Wisent) per well using 450-Select TS Biotek plate washer. After 60 min incubation in this medium, 10 μL of 10 μM e-Coelenterazine Prolume Purple (Methoxy e-CTZ) (Nanolight) was added to each well for a final concentration of 1 μM immediately followed by addition of increasing concentrations of the test compounds to each well using the HP D300 digital dispenser (Tecan). All compounds were assayed at 22 concentrations with each biosensor after a 10-minute room temperature incubation period. […] All BRET ratios were standardized using the universal BRET (uBRET) equation: uBRET=BRETratio-A/B-A×10,000 where A is the BRET ratio obtained from transfection of negative control and B is the BRET ratio obtained from transfection of positive control. […] The data were analyzed using the four-parameter logistic non-linear regression model in GraphPad Prism 9.1 and data were presented as means ± CIs of 1–4 independent experiments.
(§2) The SEM was calculated for the logEmax/EC50 ratios using the following equation: SEM=σ/n where σ is the standard deviation, and n is the number of experiments.

hCB2 = hCB2 (Homo sapiens, UniProt P34972); assay: as above; assay type: cell-based; set-up: host or cells: HEK293 (HEK293SL clone), transient
Experimental: as §1, §2

[1] = maximal radioligand displacement
[2] = rCB1 binding Ki [95% CI], [3H]-CP-55,940 competition, rat brain membranes
[3] = HEK293, read-out: hCB1 Gi1 Emax [95% CI]
[4] = HEK293, read-out: hCB1 GoB Emax [95% CI]
[5] = HEK293, read-out: hCB1 Gz Emax [95% CI]
[6] = GoB sensor, normalized to CP-55,940
[7] = Gz sensor, normalized to CP-55,940

Sequence of hCB2 (P34972 whole entry): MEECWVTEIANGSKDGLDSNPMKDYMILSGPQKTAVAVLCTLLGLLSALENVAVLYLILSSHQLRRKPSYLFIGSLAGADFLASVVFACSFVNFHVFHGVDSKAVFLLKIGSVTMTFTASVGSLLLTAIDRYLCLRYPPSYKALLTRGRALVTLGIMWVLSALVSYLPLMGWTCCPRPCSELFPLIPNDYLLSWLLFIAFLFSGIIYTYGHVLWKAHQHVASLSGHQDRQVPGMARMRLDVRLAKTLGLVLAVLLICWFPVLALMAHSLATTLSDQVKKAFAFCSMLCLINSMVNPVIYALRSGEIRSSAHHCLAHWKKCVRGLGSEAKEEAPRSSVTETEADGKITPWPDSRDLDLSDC
Sequence of hCB1 (P21554 whole entry, the tested form may be a part): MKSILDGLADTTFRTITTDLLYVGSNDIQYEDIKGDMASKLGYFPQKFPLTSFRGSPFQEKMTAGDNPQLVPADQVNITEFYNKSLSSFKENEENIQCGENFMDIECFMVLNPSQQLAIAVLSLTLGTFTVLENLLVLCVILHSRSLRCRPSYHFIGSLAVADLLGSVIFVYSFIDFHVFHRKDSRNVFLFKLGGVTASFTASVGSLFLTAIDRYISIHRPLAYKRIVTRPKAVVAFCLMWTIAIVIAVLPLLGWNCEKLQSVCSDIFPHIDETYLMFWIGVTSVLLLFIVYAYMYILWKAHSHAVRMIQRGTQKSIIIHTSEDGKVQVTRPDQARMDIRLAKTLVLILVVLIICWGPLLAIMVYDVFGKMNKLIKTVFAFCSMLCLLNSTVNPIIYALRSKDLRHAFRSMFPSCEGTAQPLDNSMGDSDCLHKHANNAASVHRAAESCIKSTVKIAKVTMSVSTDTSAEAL
T1 sequence (P20272 whole entry): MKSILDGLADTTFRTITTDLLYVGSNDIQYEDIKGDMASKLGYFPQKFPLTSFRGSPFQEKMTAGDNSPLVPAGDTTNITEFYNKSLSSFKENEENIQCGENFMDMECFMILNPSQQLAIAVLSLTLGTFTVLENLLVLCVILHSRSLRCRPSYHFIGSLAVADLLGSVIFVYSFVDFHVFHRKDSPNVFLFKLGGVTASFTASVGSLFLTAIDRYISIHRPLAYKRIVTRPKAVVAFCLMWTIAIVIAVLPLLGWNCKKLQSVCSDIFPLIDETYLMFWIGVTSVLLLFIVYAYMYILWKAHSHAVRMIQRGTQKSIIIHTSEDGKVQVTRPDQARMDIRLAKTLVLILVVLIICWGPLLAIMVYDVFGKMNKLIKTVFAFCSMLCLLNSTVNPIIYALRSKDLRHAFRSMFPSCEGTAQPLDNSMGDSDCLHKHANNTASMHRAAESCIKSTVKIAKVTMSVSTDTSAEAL

With Cc1cc(C(=O)N(C)C(c2ccccc2)c2ccco2)nn1-c1cccc(C(F)(F)F)c1 (stereo not drawn) [‘1082] the Emax (CB1; [1]) was 94% and the Ki (CB1; [2]) was 850 nM.

Cc1nc(CC2CC2)oc1-c1nc(Cc2cc3c(cc2Br)OCO3)no1 [‘7019] was tested, and the Ki (CB1; [2]) was 4040 nM.

Cc1cc(C(=O)NC(C)(c2ccco2)c2ccco2)nn1-c1cccc(C(F)(F)F)c1 [‘4936] showed an Emax (CB1; [1]) of 88% and a Ki (CB1; [2]) of 7.5 nM.

For Cc1cc(C(=O)NC(c2ccccc2)c2ccco2)nn1-c1cccc(C#N)c1 (stereo not drawn) [‘12565], the Emax (CB1; [1]) was 97%, the Ki (CB1; [2]) was 301 nM and the Emax (hCB1; [3]) was 28%. The Emax (hCB1; [4]) was 25%, the Emax (hCB1; [5]) was 51% and the EC50 (hCB1; hCB1 Gi1 EC50 [95% CI], Gi1 sensor) was 104 nM. It also gave an EC50 (hCB1; hCB1 GoB EC50 [95% CI], GoB sensor) of 44.8 nM, an EC50 (hCB1; hCB1 GoB pEC50 [95% CI], GoB sensor) of 39.8 nM and an EC50 (hCB1; hCB1 Gz EC50 [95% CI], Gz sensor) of 54.6 nM.

With CC(=O)C(C)(NC(=O)c1cc(C)n(-c2cccc(C(F)(F)F)c2)n1)c1cccs1 (stereo not drawn) [‘4156] the Emax (CB1; [1]) was 91% and the Ki (CB1; [2]) was 13.5 nM.

Cn1nc(-c2nnc(C(C)(C)Oc3ccc(C(F)(F)F)cc3)o2)c2ccccc2c1=O [‘2153] showed an Emax (CB1; [1]) of 82.6%, a Ki (CB1; [2]) of 163 nM and an Emax (hCB1; [3]) of 89%. It also gave an Emax (hCB1; [4]) of 109%, an EC50 (hCB1; hCB1 Gi1 EC50 [95% CI]) of 1010 nM and an EC50 (hCB1; hCB1 GoB EC50 [95% CI]) of 2060 nM.

In the case of N#Cc1cccc(OCc2ccoc2C(=O)OCC2CSc3ccccc3O2)c1 (stereo not drawn) [compound 5424], the Emax (CB1; [1]) is reported as 104%, the Ki (CB1; [2]) is reported as 876 nM and the “% [3H]-CP-55,940 displacement (mean) from single point screen” value (CB1; listed as 7019_31) is reported as 80.66%.

Cc1cc(C(=O)N2CC3(CCC3)[C@H]2[C@@H]2CCCO2)nn1-c1cccc(C(F)(F)F)c1 [‘3737a] gave an Emax (hCB1; [3]) of 98%, an Emax (hCB1; [4]) of 118% and an Emax (hCB1; [5]) of 140%. It also gave an EC50 (hCB1; hCB1 Gi1 EC50 [95% CI]) of 2800 nM, an EC50 (hCB1; hCB1 GoB EC50 [95% CI]) of 6730 nM and an EC50 (hCB1; hCB1 Gz EC50 [95% CI]) of 2470 nM. The EC50 (hCB1; hCB1 Gz pEC50 [95% CI]) was 2510 nM.

For Cc1cc(C(=O)N2CC3(CCC3)[C@@H]3COC[C@@H]32)nn1-c1cccc(C(F)(F)F)c1 [10_14], the “% [3H]-CP-55,940 displacement (mean) from single point screen” value (CB1) was 91.30%.

With CCCCC/C=C\C/C=C\C/C=C\C/C=C\CCCC(=O)OC(CO)CO [2-AG, reference compound] the “hCB2 Gi1 pEC50 [95% CI]” value (hCB2; Gi1 sensor) was 6.66 [6.6 – 6.7], the “hCB2 Gi2 pEC50 [95% CI]” value (hCB2; Gi2 sensor) was 7.0 [6.9 – 7.2] and the “hCB2 Gi2 Emax [95% CI]” value (hCB2; Gi2 sensor, normalized to CP-55,940) was 78 [74 – 84]. For the same compound, the “hCB2 GoB pEC50 [95% CI]” value (hCB2; GoB sensor) was 6.4 [6.3 – 6.5], the “hCB2 GoB Emax [95% CI]” value (hCB2; [6]) was 101 [98 – 104] and the “hCB2 Gz pEC50 [95% CI]” value (hCB2; Gz sensor) was 5.7 [4.1 – 6.0]. The “hCB2 Gz Emax [95% CI]” value (hCB2; [7]) was 96 [76 – 233], the EC50 (hCB2; read-out: hCB2 Barr2 + GRK2 EC50 [95% CI], ßarrestin-2 sensor with GRK2) was 1850 nM and the EC50 (hCB2; read-out: hCB2 Gi1 EC50 [95% CI], Gi1 sensor) was 217 nM. It also gave an EC50 (hCB2; read-out: hCB2 Gi2 EC50 [95% CI], Gi2 sensor) of 96 nM, an EC50 (hCB2; read-out: hCB2 GoB EC50 [95% CI], GoB sensor) of 394 nM and an EC50 (hCB2; read-out: hCB2 Gz EC50 [95% CI], Gz sensor) of 2120 nM. For the same compound, the “hCB2 Barr2 + GRK2 pEC50 [95% CI]” value (hCB2; ßarrestin-2 sensor with GRK2) was 5.7 [5.4 – 6.0] and the “hCB2 Barr2 + GRK2 Emax [95% CI]” value (hCB2; ßarrestin-2 sensor with GRK2, normalized to CP-55,940) was 118 [104 – 140].

Work on Cc1cc(C(=O)NC(C)(c2ccccc2)c2ccco2)nn1-c1cccc(C(F)(F)F)c1 (stereo not drawn) [‘5806] yielded an Emax (CB1; [1]) of 100% and a Ki (CB1; [2]) of 8 nM.

COC(=O)[C@@H]1[C@@H]2CC[C@@H]2CN1C(=O)c1cc(C)n(-c2cccc(C(F)(F)F)c2)n1 [‘6448] was tested, and the “rCB1 binding pKi [95% CI]” value (CB1; [3H]-CP-55,940 competition, rat brain membranes) was 6.1 [5.9 – 6.3], the “rCB1 binding Emax [SEM]” value (CB1; [1]) was 103% and the Ki (CB1; read-out: rCB1 binding Ki [95% CI], [3H]-CP-55,940 competition, rat brain membranes) was 866 nM. The “hCB1 Gi1 pEC50 [95% CI]” value (hCB1; Gi1 sensor) was 6.5 [6.4 – 6.5], the “hCB1 Gi1 Emax [95% CI]” value (hCB1; Gi1 sensor, normalized to CP-55,940) was 87 [86 – 88] and the “hCB1 GoB pEC50 [95% CI]” value (hCB1; GoB sensor) was 6.5 [6.4 – 6.6]. The “hCB1 GoB Emax [95% CI]” value (hCB1; [6]) was 90 [87 – 91], the “hCB1 Gz pEC50 [95% CI]” value (hCB1; Gz sensor) was 6.1 [5.9 – 6.4] and the “hCB1 Gz Emax [95% CI]” value (hCB1; [7]) was 151 [130 –172]. The EC50 (hCB1; read-out: hCB1 Gi1 EC50 [95% CI], Gi1 sensor) was 345 nM, the EC50 (hCB1; read-out: hCB1 GoB EC50 [95% CI], GoB sensor) was 310 nM and the EC50 (hCB1; read-out: hCB1 Gz EC50 [95% CI], Gz sensor) was 728 nM.

Cc1cc(C(=O)N2CC3(CCC3)[C@H]2[C@H]2CCCO2)nn1-c1cccc(C(F)(F)F)c1 [‘3737b] showed an Emax (hCB1; [3]) of 89%, an Emax (hCB1; [4]) of 152% and an Emax (hCB1; [5]) of 231%. The EC50 (hCB1; hCB1 Gi1 EC50 [95% CI]) was 3030 nM, the EC50 (hCB1; hCB1 GoB EC50 [95% CI]) was 19800 nM and the EC50 (hCB1; hCB1 Gz EC50 [95% CI]) was 30800 nM.

For COC(=O)[C@H](c1cccs1)N(C)C(=O)c1cc(C)n(-c2cccc(C(F)(F)F)c2)n1 [‘1066], the Emax (CB1; [1]) was 97% and the Ki (CB1; [2]) was 1720 nM.
